Laboratory results: patent US20080009418A1, “Selective Inhibitors” (Alchemia LTD., priority 2004, published 2008)

Tests used:
Human Melanocortin (MC3) = molecular target: T1, Human Melanocortin (MC3) (Homo sapiens, UniProt P41968); assay: Radioligand binding, human melanocortin MC3 membranes, FlashPlate, [125I]-NDP-αMSH; settings: compound at 10 μM, [125I]-NDP-αMSH
T1 construct: purchased Perkin Elmer Biosignal
In short: (§1)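 Cloned human receptor membranes were coated onto FlashPlate wells and incubated with radioligand and compound (added from a 0.5 mM DMSO daughter plate) for 1 hour at room temperature in the dark. Scintillation counting gave percent inhibition, with DMSO defining total and reference ligand defining non-specific binding.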

[1] = molecular target: T2, Human melanin-concentrating hormone (MCH1) (Homo sapiens, UniProt Q99705); assay: Radioligand binding, human melanin-concentrating hormone MCH1 membranes, FlashPlate, [125I]-S36057; settings: compound at 10 μM
T2 construct: purchased Perkin Elmer Biosignal
T2 sequence (Q99705 whole entry): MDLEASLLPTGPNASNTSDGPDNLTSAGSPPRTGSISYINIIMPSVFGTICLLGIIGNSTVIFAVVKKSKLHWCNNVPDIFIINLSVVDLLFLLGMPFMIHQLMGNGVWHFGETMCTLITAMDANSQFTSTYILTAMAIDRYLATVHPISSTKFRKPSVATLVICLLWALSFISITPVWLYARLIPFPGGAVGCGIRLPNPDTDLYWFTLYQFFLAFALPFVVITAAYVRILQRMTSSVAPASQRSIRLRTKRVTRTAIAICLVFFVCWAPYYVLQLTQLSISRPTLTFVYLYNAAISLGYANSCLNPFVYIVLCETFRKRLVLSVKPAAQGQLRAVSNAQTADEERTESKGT
In short: as §1

Human neurokinin (NK1) = molecular target: T3, Human neurokinin (NK1) (Homo sapiens, UniProt P25103); assay: Radioligand binding, human neurokinin NK1 membranes, filtration, [125I]-Substance P; settings: compound at 10 μM, [125I]-Substance P
T3 construct: purchased Perkin Elmer Biosignal
T3 sequence (P25103 whole entry): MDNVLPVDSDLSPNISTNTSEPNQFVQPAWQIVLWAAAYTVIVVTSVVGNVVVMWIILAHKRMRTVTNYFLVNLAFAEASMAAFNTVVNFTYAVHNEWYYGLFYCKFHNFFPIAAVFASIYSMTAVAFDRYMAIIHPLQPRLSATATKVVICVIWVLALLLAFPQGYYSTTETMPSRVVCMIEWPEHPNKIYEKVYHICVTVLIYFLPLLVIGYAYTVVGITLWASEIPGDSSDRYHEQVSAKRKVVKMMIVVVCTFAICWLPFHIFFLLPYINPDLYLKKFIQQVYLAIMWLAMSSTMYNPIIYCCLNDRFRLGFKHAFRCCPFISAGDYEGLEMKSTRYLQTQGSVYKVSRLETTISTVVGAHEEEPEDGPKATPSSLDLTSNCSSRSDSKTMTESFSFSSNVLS
In short: (§2)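 Membranes from cloned human receptors were incubated with compound and radioligand for 1 hour at room temperature. Bound ligand was collected on 0.3% PEI-soaked filters, washed with cold 50 mM Tris-HCl pH 7.4, and counted by scintillation. Percent inhibition was computed against DMSO totals and reference-ligand nonspecific wells.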

Human opioid (ORL1) = molecular target: T4, Human opioid (ORL1) (Homo sapiens, UniProt P41146); assay: Radioligand binding, human opioid ORL1 membranes, FlashPlate, [125I]-Nociceptin; settings: compound at 10 μM, [125I]-Nociceptin
T4 construct: purchased Perkin Elmer Biosignal
T4 sequence (P41146 whole entry): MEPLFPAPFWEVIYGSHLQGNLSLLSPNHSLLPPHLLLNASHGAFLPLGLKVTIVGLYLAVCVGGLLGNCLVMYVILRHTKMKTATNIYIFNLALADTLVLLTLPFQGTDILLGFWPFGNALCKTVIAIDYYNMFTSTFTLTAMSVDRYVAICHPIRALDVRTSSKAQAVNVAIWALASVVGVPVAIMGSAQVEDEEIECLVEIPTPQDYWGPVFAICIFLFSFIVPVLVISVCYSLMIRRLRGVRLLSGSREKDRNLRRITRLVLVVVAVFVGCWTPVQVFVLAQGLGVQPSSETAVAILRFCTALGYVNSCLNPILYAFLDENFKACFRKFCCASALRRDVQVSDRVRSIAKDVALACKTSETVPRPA
In short: as §1

[2] = molecular target: T5, Human neuropeptide Y (NPY-Y1) (Homo sapiens, UniProt P25929); assay: Radioligand binding, human neuropeptide Y NPY-Y1 membranes, FlashPlate, [125I]-PYY; settings: compound at 10 μM, [125I]-PYY
T5 construct: purchased Perkin Elmer Biosignal
T5 sequence (P25929 1-384): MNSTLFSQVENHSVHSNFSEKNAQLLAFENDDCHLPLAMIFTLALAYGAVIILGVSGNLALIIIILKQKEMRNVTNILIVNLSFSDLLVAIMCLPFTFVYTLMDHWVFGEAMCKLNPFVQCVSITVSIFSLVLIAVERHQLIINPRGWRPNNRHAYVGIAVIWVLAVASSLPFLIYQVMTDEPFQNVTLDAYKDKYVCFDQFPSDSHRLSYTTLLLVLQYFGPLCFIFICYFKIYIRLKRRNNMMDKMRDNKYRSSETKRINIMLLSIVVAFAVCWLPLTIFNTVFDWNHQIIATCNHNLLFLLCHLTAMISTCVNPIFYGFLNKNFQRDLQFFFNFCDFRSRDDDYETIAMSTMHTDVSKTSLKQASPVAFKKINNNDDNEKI
In short: as §1

Human Melanocortin (MC4) = molecular target: T6, Human Melanocortin (MC4) (Homo sapiens, UniProt P32245); assay: Radioligand binding, human melanocortin MC4 membranes, FlashPlate, [125I]-NDP-αMSH; settings: compound at 10 μM, [125I]-NDP-αMSH
T6 construct: purchased Perkin Elmer Biosignal
T6 sequence (P32245 whole entry): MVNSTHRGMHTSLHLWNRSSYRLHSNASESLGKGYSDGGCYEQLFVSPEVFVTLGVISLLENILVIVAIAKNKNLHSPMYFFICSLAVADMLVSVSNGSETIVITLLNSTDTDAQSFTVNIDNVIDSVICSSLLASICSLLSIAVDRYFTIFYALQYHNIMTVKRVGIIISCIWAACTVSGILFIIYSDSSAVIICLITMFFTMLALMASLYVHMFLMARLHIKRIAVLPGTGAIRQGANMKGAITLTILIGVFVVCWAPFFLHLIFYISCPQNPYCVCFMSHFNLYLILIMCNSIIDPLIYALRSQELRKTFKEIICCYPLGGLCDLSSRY
In short: as §1

Human κ-Opioid (KOP) = molecular target: T7, Human κ-Opioid (KOP) (Homo sapiens, UniProt P41145); assay: Radioligand binding, human κ-opioid (KOP) membranes, filtration, [3H]-Diprenorphine; settings: compound at 10 μM, [3H]-Diprenorphine
T7 construct: purchased Perkin Elmer Biosignal
T7 sequence (P41145 whole entry): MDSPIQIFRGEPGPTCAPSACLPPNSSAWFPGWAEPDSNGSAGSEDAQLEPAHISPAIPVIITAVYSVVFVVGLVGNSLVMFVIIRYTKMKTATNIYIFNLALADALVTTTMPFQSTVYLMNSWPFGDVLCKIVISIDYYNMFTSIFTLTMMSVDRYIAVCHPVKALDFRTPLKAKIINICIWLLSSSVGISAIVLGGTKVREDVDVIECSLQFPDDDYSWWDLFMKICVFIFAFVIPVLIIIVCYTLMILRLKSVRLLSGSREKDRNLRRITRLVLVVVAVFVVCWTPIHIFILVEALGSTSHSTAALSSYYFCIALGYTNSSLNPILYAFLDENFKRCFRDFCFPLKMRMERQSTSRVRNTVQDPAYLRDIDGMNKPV
In short: as §2

Human melanocortin (MC5) = molecular target: T8, Human melanocortin (MC5) (Homo sapiens, UniProt P33032); assay: Radioligand binding, human melanocortin MC5 membranes, FlashPlate, [125I]-NDP-αMSH; settings: compound at 10 μM, [125I]-NDP-αMSH
T8 construct: purchased Perkin Elmer Biosignal
T8 sequence (P33032 whole entry): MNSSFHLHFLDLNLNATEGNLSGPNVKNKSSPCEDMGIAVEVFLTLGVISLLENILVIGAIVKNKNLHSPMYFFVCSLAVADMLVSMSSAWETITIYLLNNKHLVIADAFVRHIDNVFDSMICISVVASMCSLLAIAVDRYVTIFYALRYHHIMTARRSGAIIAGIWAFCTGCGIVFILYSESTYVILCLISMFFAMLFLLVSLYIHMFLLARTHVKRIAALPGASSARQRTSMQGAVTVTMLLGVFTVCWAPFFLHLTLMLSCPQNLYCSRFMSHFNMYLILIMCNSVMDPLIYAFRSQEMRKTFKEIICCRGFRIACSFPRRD
In short: as §1

Human δ-opioid (DOP) = molecular target: T9, Human δ-opioid (DOP) (Homo sapiens, UniProt P41143); assay: Radioligand binding, human δ-opioid (DOP) membranes, FlashPlate, [3H]-Bremazocine; settings: compound at 10 μM, [3H]-Bremazocine
T9 construct: purchased Perkin Elmer Biosignal
T9 sequence (P41143 whole entry): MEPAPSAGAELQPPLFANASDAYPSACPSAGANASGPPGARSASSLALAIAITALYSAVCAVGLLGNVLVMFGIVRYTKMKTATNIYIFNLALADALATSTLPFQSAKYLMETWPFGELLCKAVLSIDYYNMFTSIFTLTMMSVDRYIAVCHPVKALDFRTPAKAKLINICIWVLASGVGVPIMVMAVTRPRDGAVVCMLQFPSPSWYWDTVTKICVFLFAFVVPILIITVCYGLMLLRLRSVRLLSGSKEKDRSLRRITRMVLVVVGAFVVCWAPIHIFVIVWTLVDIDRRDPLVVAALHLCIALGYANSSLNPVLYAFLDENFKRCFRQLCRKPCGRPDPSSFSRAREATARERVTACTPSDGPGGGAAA
In short: as §1

Mouse urotensin (mUR2) = molecular target: T10, Mouse urotensin (mUR2) (Mus musculus, UniProt Q8VIH9); assay: Radioligand binding, mouse urotensin mUR2 membranes, FlashPlate, [125I]-Urotensin II; settings: compound at 10 μM, [125I]-Urotensin II
T10 construct: purchased Perkin Elmer Biosignal
T10 sequence (Q8VIH9 1-385): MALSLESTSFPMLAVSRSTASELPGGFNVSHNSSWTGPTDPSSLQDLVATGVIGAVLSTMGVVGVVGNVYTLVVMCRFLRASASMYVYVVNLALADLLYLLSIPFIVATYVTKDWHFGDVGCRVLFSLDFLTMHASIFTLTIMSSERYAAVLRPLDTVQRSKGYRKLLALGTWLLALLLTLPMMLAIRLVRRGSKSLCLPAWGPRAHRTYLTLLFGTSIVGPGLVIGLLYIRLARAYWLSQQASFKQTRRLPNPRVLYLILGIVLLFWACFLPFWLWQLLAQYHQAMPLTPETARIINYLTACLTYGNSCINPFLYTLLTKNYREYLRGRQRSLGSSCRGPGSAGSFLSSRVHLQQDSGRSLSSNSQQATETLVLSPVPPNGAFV
In short: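 Cloned mouse urotensin (mUR2) receptor membranes from Perkin Elmer Biosignal were immobilized in FlashPlate microplates using a proprietary coating. Each well got 19.5 μl buffer, then 0.5 μl of DMSO, reference ligand, or compound. Adding 5 μl of [125I]-Urotensin II, diluted to 5× final concentration in binding buffer, started binding. Plates were sealed with TopSeal-A and incubated 1 hour at room temperature in the dark. Wells were counted for 30 seconds each on a TopCount after a 60-second delay, and percentage inhibition was calculated.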

Human μ-opioid (MOP) = molecular target: T11, Human μ-opioid (MOP) (Homo sapiens, UniProt P35372); assay: Radioligand binding, human μ-opioid (MOP) membranes, FlashPlate, [3H]-Naloxone; settings: compound at 10 μM, [3H]-Naloxone
T11 construct: purchased Perkin Elmer Biosignal
T11 sequence (P35372 whole entry): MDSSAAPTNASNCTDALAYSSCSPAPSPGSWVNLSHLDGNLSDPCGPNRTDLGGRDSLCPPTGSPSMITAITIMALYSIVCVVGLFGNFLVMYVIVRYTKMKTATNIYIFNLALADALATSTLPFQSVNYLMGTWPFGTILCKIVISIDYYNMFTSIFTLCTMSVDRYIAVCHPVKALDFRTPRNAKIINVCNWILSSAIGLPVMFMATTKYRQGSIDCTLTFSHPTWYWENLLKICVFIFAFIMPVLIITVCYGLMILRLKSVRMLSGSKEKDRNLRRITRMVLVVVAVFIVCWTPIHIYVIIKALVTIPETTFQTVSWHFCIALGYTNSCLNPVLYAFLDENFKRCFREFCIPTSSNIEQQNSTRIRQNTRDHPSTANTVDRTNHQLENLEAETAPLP
In short: as §1

T1 sequence (P41968 whole entry): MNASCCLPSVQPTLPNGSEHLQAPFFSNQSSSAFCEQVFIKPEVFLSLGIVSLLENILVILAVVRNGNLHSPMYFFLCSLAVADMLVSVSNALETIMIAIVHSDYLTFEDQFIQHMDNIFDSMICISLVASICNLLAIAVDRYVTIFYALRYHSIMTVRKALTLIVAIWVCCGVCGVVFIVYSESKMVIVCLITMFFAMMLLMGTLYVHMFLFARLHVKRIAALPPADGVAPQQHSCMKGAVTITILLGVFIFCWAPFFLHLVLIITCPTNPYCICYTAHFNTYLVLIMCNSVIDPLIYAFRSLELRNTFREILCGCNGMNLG

N=C(N)NCC(=O)NC1C(OCc2ccc(Cl)cc2)OC(COCc2ccccc2)C(O)C1OCc1ccc(Cl)cc1 (single isomer, unassigned) [compound 510]
A3: inhibition of radioligand binding, human melanocortin (MC3) (Human Melanocortin (MC3); 10 µM): + (“+” indicates greater than 50% inhibition at 10 μM) | A6: inhibition of radioligand binding, human melanin-concentrating hormone (MCH1) ([1]; [125I]-S36057): + (“+” indicates greater than 50% inhibition at 10 μM) | A8: inhibition of radioligand binding, human neurokinin (NK1) (Human neurokinin (NK1)): + (“+” indicates greater than 50% inhibition at 10 μM) | A10: inhibition of radioligand binding, human opioid (ORL1) (Human opioid (ORL1); 10 µM): + (“+” indicates greater than 50% inhibition at 10 μM) | A9: inhibition of radioligand binding, human neuropeptide Y (NPY-Y1) [2]: − (“−” indicates less than 50% inhibition at 10 μM) | A4: inhibition of radioligand binding, human melanocortin (MC4) (Human Melanocortin (MC4)): + (“+” indicates greater than 50% inhibition at 10 μM) | A2: inhibition of radioligand binding, human κ-opioid (KOP) (Human κ-Opioid (KOP)): − (“−” indicates less than 50% inhibition at 10 μM) | A5: inhibition of radioligand binding, human melanocortin (MC5) (Human melanocortin (MC5)): + (“+” indicates greater than 50% inhibition at 10 μM) | A1: inhibition of radioligand binding, human δ-opioid (DOP) (Human δ-opioid (DOP)): − (“−” indicates less than 50% inhibition at 10 μM) | A11: inhibition of radioligand binding, mouse urotensin (mUR2) (Mouse urotensin (mUR2)): − (“−” indicates less than 50% inhibition at 10 μM) | A7: inhibition of radioligand binding, human μ-opioid (MOP) (Human μ-opioid (MOP); 10 µM): − (“−” indicates less than 50% inhibition at 10 μM)

COC[C@H]1OC(OCc2cccc(O)c2)[C@H](NC(=O)CNC(=N)N)[C@@H](OCc2ccc(-c3ccccc3)cc2)[C@@H]1O (stereo partly drawn) [compound 141]
A3 radioligand binding, percentage inhibition (Human Melanocortin (MC3)): − (“−” indicates less than 50% inhibition at 10 μM) | A6 radioligand binding, percentage inhibition ([1]; [125I]-S36057): + (“+” indicates greater than 50% inhibition at 10 μM) | A8 radioligand binding, percentage inhibition (Human neurokinin (NK1)): − (“−” indicates less than 50% inhibition at 10 μM) | A10 radioligand binding, percentage inhibition (Human opioid (ORL1)): − (“−” indicates less than 50% inhibition at 10 μM) | A9 radioligand binding, percentage inhibition [2]: − (“−” indicates less than 50% inhibition at 10 μM) | A4 radioligand binding, percentage inhibition (Human Melanocortin (MC4)): − (“−” indicates less than 50% inhibition at 10 μM) | A2 radioligand binding, percentage inhibition (Human κ-Opioid (KOP)): − (“−” indicates less than 50% inhibition at 10 μM) | A5 radioligand binding, percentage inhibition (Human melanocortin (MC5)): + (“+” indicates greater than 50% inhibition at 10 μM) | A1 radioligand binding, percentage inhibition (Human δ-opioid (DOP)): − (“−” indicates less than 50% inhibition at 10 μM) | A11 radioligand binding, percentage inhibition (Mouse urotensin (mUR2)): − (“−” indicates less than 50% inhibition at 10 μM) | A7 radioligand binding, percentage inhibition (Human μ-opioid (MOP)): − (“−” indicates less than 50% inhibition at 10 μM)

N=C(N)NCCC(=O)NC1C(OCc2ccc(-c3ccccc3)cc2)OC(COCc2ccc(Cl)cc2)C(O)C1OCc1ccc(Cl)cc1 (stereo not drawn) [compound 410]
A3: inhibition of radioligand binding (Human Melanocortin (MC3); human MC3 membranes): + (“+” indicates greater than 50% inhibition at 10 μM) | A6: inhibition of radioligand binding ([1]; [125I]-S36057, human MCH1 membranes): + (“+” indicates greater than 50% inhibition at 10 μM) | A8: inhibition of radioligand binding (Human neurokinin (NK1); human NK1 membranes): + (“+” indicates greater than 50% inhibition at 10 μM) | A10: inhibition of radioligand binding (Human opioid (ORL1); human ORL1 membranes): + (“+” indicates greater than 50% inhibition at 10 μM) | A9: inhibition of radioligand binding ([2]; human NPY-Y1 membranes): − (“−” indicates less than 50% inhibition at 10 μM) | A4: inhibition of radioligand binding (Human Melanocortin (MC4); human MC4 membranes): + (“+” indicates greater than 50% inhibition at 10 μM) | A2: inhibition of radioligand binding (Human κ-Opioid (KOP); human KOP membranes): − (“−” indicates less than 50% inhibition at 10 μM) | A5: inhibition of radioligand binding (Human melanocortin (MC5); human MC5 membranes): + (“+” indicates greater than 50% inhibition at 10 μM) | A1: inhibition of radioligand binding (Human δ-opioid (DOP); human DOP membranes): − (“−” indicates less than 50% inhibition at 10 μM) | A11: inhibition of radioligand binding (Mouse urotensin (mUR2); mouse mUR2 membranes): − (“−” indicates less than 50% inhibition at 10 μM) | A7: inhibition of radioligand binding (Human μ-opioid (MOP); human MOP membranes): − (“−” indicates less than 50% inhibition at 10 μM)
